Patent EP4420661B1, “SMALL MOLECULES TARGETING GLYCOPROTEIN VI AS ANTIPLATELET AGENTS FOR USE IN THE PREVENTION AND/OR TREATMENT OF THROMBOSIS AND ASSOCIATED PATHOLOGIES” (Universidade de Santiago de Compostela, priority 2023, dated 2024)
Values after ≈ are worked out from the molar mass of the structure shown.

What was measured:
human platelets [1] = assay: platelet aggregation assay, CRP-induced; type: cell-based; settings: 10 µM; CRP 1 µg/mL; Figure 2
Protocol: Platelet aggregation assays were carried out to assess the potency of the active compounds as previously described [Barrachina et al. (2021)].
Briefly, human platelets from at least =7 healthy individuals were isolated and washed. Then, the suspension was incubated with the compounds at 10 µM at 37 ∘C for 4 min in a Chrono-log® 490-X aggregometer (Chrono-log Corporation, Havertown, PA, USA). After that, platelets were stimulated with the agonist CRP at 1 µg/mL for 5 min.

GPVI = target: T1, GPVI (Homo sapiens, UniProt Q9HCN6); assay: label-free biophysical binding assay based on dynamic mass redistribution (DMR), immobilized GPVI; settings: for interaction with GPVI, Mean: DMR response; for interaction profile with GPVI (in words): concentration-response
T1 sequence (Q9HCN6 21-267 limits assumed): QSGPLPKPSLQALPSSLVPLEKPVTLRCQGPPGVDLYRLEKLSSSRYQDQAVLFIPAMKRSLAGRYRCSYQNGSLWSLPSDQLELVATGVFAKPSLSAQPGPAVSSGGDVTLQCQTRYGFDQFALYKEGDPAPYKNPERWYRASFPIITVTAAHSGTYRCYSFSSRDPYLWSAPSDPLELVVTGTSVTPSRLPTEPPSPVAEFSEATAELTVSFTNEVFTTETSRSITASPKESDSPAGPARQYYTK
From the text: A biophysical assay to test direct interaction with GPVI was developed by using a label-free methodology based on dynamic mass redistribution (DMR).
This protocol consists of immobilizing the target protein in a surface by chemical means and then measure the refractory index of a light directed to the bottom of the surface, which contains a sensor. It has been used previously for other targets to determine the potency of ligands such as peptides and molecules [Akhter et al., (2017) and Álvarez-Coiradas et al., (2020)].
Briefly, EnSpire LFB high sensitivity plates (PerkinElmer 6057460, USA) were activated with 400 mM EDC (N-(3-dimethylaminopropyl)-N'- ethylcarbodiimide hydrochloride) (Sigma Aldrich, UK) and 100 mM sulfo-NHS (sulfo-N-hydroxysulfosuccinimide) (Thermo Fisher, USA) diluted in ultrapure water for 30 min at room temperature. Microplates were subsequently washed with ultrapure water. GPVI protein was immobilized (25 µg/ml) in 20 mM sodium acetate buffer, pH 5.5. After an overnight incubation at 4 °C, the microplate was wa- shed with PBS with 0.005% Tween-20, pH 7.4 (assay buffer). Baseline was read after three hours on EnSpireTM 2300 Multilabel Plate Reader (PerkinElmer, Singapore). Compounds were added to the microplate, incubated for 1 h and the final read was performed in the EnSpireTM 2300 Multilabel Plate Reader. Recombinant CRP and assay buffer were employed as a positive and a negative control, respectively.
Compounds were assayed by means of concentration-response curves with concentrations between 100 µM and 0.4 µM (1:3 serial dilutions in triplicates), while CRP was assayed similarly starting with 7µg/ml top dose and a total of 6 concentrations (1:2 serial dilutions in triplicates). Response (pm) was obtained by subtracting the baseline measurement from the final read.

physchem = settings: 37 °C, aqueous buffer, kinetic from dmso stock
Protocol: (§5) Solubility was determined by nephelometry to assess its potential impact on the bioassays at active concentrations.
(§6) Then, said compounds were incubated for 2 hours at 37°C and read in a NEPHELOstar Plus (BMG LABTECH).

human platelets [2] = assay: intracellular Ca+2 mobilization assay, CRP-activated washed platelets (FLIPR Calcium 4); type: cell-based; settings: Platelet, calcium mobilization in human platelets, read-out: % Inhibition of CRP effect at 1µM, Mean
Protocol: An intracellular Ca^+2 mobilization assay was used to test the activity of the ligands in platelets. This assay measures the changes in calcium in real time by fluorophore dye Calcium 4, providing a useful way to characterize platelet activation by GPVI signaling [Barrachina et al. (2021)].
Washed platelets (5x10E6) were incubated with FLIPR Calcium 4 reagent (Molecular Devices LLC, San Jose, CA, USA) in a 384-well transparent bottom plate (Greiner Bio-One International GmbH, Kremsmünster, Austria) and supplemented with Probenecid (Invitrogen™, Carlsbad, CA, USA) 0.07% for 1 h at 37 °C. Platelets were co-incubated for 10 min with the tested compounds and inhibitors of secondary mediators (2 U/mL apyrase and 10 microM indomethacin (Sigma-Aldrich, Saint Louis, MO, USA)) under nonaggregating conditions (9 microM eptifibatide (Cayman Chemicals, Ann Arbor, MI, USA)). Then, the GPVI-specific agonist Collagen-Related Peptide (CRP) was added to the platelet suspension at different doses. Both potential GPVI inhibitors and CRP were automatically dispensed by FDSS7000EX Functional Drug Screening System (Hamamatsu Photonics, Hamamatsu, Japan). Intracellular Ca^2+ mobilization was assessed by measuring fluorescence changes ([…] wavelengths) in real time for 15 min after the addition of the agonist. 100% was expressed as maximal Ca^2+ release in platelets treated with the agonist CRP. To determine IC50, compounds were tested at 9 different concentrations in duplicates starting from 10 uM and performing 1:3 serial dilutions. The analysis of the data was performed with GraphPad Prism® software (version 6.0e, March 2014) (GraphPad Software, San Diego, CA, USA) by carrying out a nonlinear regression fit for log(inhibitor) vs. relative CRP activity using a Hill slope of -1, and top and bottom constraints of 100 and 0, respectively.

[3] = metabolic stability, dog microsomes; type: in vitro ADME
Protocol: (§1) Microsomes from Tebu-bio Xenotech were employed in the assay, having a content of 20 mg/ml of protein. The following quantities were added to each well of a 96-well microplate. Table 6: Metabolic stability assay.
(§2) Plates were incubated at 37°C and 75 µL samples were taken at 0, 10, 20, 40 and 60 minutes.
(§3) Samples were transferred to a microplate and 75 µl Acetonitrile + IS(Rolipram) were added for inactivating the microsomes, and 30 µl of H2O with 0.5% formic acid for improving the chromatographic conditions and kept at 4°C. When all the samples were taken the plate was centrifuged at […] for 30 min at 15°C. Stationary phase: ACQUITY BEH C18 1.7µm 2.1x50mm (Waters) Mobile phase: A: 0.1% formic; B: acetonitrile+0.1% formic acid Gradient: Table 6: UPLC gradient / Metabolic stability assay
(§4) Metabolic stability was calculated from the logarithm of the remaining compound at each of the times evaluated.

[4] = metabolic stability, mouse microsomes; type: in vitro ADME
Protocol: Samples were transferred to a microplate and 75 µl Acetonitrile + IS(Rolipram) were added for inactivating the microsomes, and 30 µl of H2O with 0.5% formic acid for improving the chromatographic conditions and kept at 4°C. When all the samples were taken the plate was centrifuged at 46000 g for 30 min at 15°C. Stationary phase: ACQUITY BEH C18 1.7µm 2.1x50mm (Waters) Mobile phase: A: 0.1% formic; B: acetonitrile+0.1% formic acid Gradient: Table 6: UPLC gradient / Metabolic stability assay

[5] = metabolic stability, human microsomes; type: in vitro ADME
Protocol: as §1, §2, §3, §4

[6] = metabolic stability, rat microsomes; type: in vitro ADME
Protocol: as §1, §2, §3, §4

human platelets [7] = assay: platelet spreading assay on CRP (phalloidin staining, confocal microscopy); type: cell-based; settings: 10µM; CRP 1µg/mL; Figure 4
Protocol: Platelet spreading experiments were carried out to assess the potency of the compounds of formula (I), exemplified by compounds (If)and (Ih).
Platelets can change from a rounded, non-adherent form to adhere and flatten shape when exposed to ligands. This "spreading" effect can lead to the formation of cytoskeletal protein rearrangement. Platelet adhesion and extent of spreading (area covered) can be quantified.
Briefly, human platelets from healthy individuals were isolated and washed. Then, platelets were incubated with the inhibitors at 10µM for 5 min at room temperature and then for 45 min at 37°C in coverslips coated with 1µg/mL of agonist (CRP).
The images of platelet shape given by phalloidin staining were acquired by confocal fluorescence microscopy and the area analyzed by ImageJ [Onselaer et al., (2020)].

[8] = * from Dehring et al. (2004); cited from earlier work
human platelets [9] = assay: platelet aggregation selectivity assay (agonists collagen, rhodocytin, thrombin); type: cell-based; settings: 10 µM
Protocol: In addition, an assessment of the selectivity of the active compound (Ic)at 10 µM was carried out based on aggregation assays. Briefly, human platelets from healthy individuals were isolated and washed. The agonists used in this selectivity assay were collagen, rhodocytin, and thrombin.

[10] = solubility by nephelometry; settings: 37 °C, aqueous buffer, kinetic from dmso stock
Protocol: as §5, §6

In the case of O=C(Cc1ccc2c(c1)OCCO2)Nc1nc(-c2ccc3ccccc3c2)cs1 [Compound (Ie)], the “inhibition of platelet aggregation (in words)” value (from here on “inhibition … (in words)”) (human platelets [1]) is reported as “consistent inhibition of platelet aggregation”, the “interaction with GPVI, Mean” value (GPVI; Compound concentration (1µM)) is reported as 6.50 pm and the “interaction with GPVI, Mean” value (GPVI; Compound concentration (10µM)) is reported as 25.16 pm. It also gave a solubility at 2 h (physchem; pbs with 1% dmso) of 22.5 µM (≈ 9.06 µg/mL) and an inhibition at 1 µM (human platelets [2]) of 24.6%.
With collagen related peptide [CRP] the “interaction profile with GPVI (in words)” value (GPVI) was “robust dose-dependent response”.
For O=C(Cc1ccc2c(c1)OCCO2)Nc1nc(-c2ccccc2)cs1 [Compound (Ia)], the “interaction with GPVI, Mean” value (GPVI; Compound concentration (1µM)) was 10.8 pm, the “interaction with GPVI, Mean” value (GPVI; Compound concentration (10µM)) was 19.81 pm and the solubility at 2 h (physchem; pbs with 1% dmso) was 5.4 µM (≈ 1.9 µg/mL). For the same compound, the inhibition at 1 µM (human platelets [2]) was 53.7%.
In the case of C[C@]12CC[C@H]3[C@@H](CCC4=CC(=O)CC[C@@]43C)[C@@H]1CC[C@@H]2O [Testosterone, reference compound], the “% remanent (*)” value ([3]; Dog microsomes, (*) sampling time 60 min) is reported as 49.1%, the half-life ([3]; dog, dog microsomes) is reported as 59.9 min and the microsomal CLint ([3]; dog, dog microsomes) is reported as 11.8 µL/min/mg. For the same compound, the t1/2 [4] was 4.76 min, the “% remanent (*)” value ([4]; (*) sampling time 60 min) was 0.06% and the t1/2 [5] was 12.95 min. For the same compound, the “% remanent (*)” value ([5]; (*) sampling time 60 min) was 4.02%, the “% remanent (*)” value ([6]; Rat microsomes, (*) sampling time 60 min) was 0.14% and the half-life ([6]; rat, rat microsomes) was 0.9 min.
For Cc1ccc2nc(NC(=O)Cc3ccc4c(c3)OCCO4)sc2c1 [Ref. compound A, reference compound], the “interaction with GPVI, Mean” value (GPVI; Compound concentration (1µM)) was -9.78 pm, the “interaction with GPVI, Mean” value (GPVI; Compound concentration (10µM)) was 1.91 pm and the “interaction profile with GPVI (in words)” value (GPVI; DMR) was “did not show a good interaction profile”.
For O=C(Cc1ccc2c(c1)OCCO2)Nc1nc(-c2ccc(Cl)cc2)cs1 [Compound (Ib)], the “platelet spreading on CRP (in words)” value (human platelets [7]) was “inhibition of platelet spreading on CRP”, the “inhibition … (in words)” value (human platelets [1]) was “consistent inhibition of platelet aggregation” and the “interaction with GPVI, Mean” value (GPVI; Compound concentration (1µM)) was 13.76 pm. The “interaction with GPVI, Mean” value (GPVI; Compound concentration (10µM)) was 20.47 pm, the solubility at 2 h (physchem; pbs with 1% dmso) was 50 µM (≈ 19.3 µg/mL) and the inhibition at 1 µM (human platelets [2]) was 15.9%.
In the case of CC(=O)[C@H]1CC[C@H]2[C@@H]3CCC4=CC(=O)CC[C@]4(C)[C@H]3CC[C@]12C [Progesterone, reference compound], the Reported solubility [8] is listed as 3.7* µM and the solubility at 2 h (physchem) is listed as 5.1 µM (≈ 1.6 µg/mL).
In the case of O=C(Cc1ccc2c(c1)OCCO2)Nc1nc(-c2ccc3c(c2)CCCC3)cs1 [Compound (Id)], the “interaction with GPVI, Mean” value (GPVI; Compound concentration (1µM)) is reported as 17.38 pm, the “interaction with GPVI, Mean” value (GPVI; Compound concentration (10µM)) is reported as 28.66 pm and the solubility at 2 h (physchem; pbs with 1% dmso) is reported as 21.9 µM (≈ 8.9 µg/mL). It also gave an inhibition at 1 µM (human platelets [2]) of 36%.
For COc1cc2nc(N3CCN(C(=O)c4ccco4)CC3)nc(N)c2cc1OC [Prazosin, reference compound], the Reported solubility [8] is listed as 26.3* µM and the solubility at 2 h (physchem) is listed as 77.2 µM (≈ 29.6 µg/mL).
For O=C(Cc1ccc2c(c1)OCCO2)Nc1nc2c(Cl)cccc2s1 [Ref. compound B, reference compound], the “interaction with GPVI, Mean” value (GPVI; Compound concentration (1µM)) was 6.77 pm, the “interaction with GPVI, Mean” value (GPVI; Compound concentration (10µM)) was -16.01 pm and the “interaction profile with GPVI (in words)” value (GPVI; DMR) was “did not show a good interaction profile”.
For O=C(Cc1ccc2c(c1)OCCO2)Nc1nc(-c2ccc(Br)cc2)cs1 [Compound (Ic)], the “platelet spreading on CRP (in words)” value (human platelets [7]) was “inhibition of platelet spreading on CRP”, the “platelet aggregation, platelets exposed to collagen (in words)” value (human platelets [9]; agonist collagen) was “consistent inhibition of platelet aggregation” and the “platelet aggregation induced by rhodocytin (in words)” value (human platelets [9]; agonist rhodocytin) was “unchanged”. For the same compound, the “platelet aggregation induced by thrombin (in words)” value (human platelets [9]; agonist thrombin) was “unchanged”, the “inhibition … (in words)” value (human platelets [1]) was “consistent inhibition of platelet aggregation” and the “interaction with GPVI, Mean” value (GPVI; Compound concentration (1µM)) was 12.37 pm. For the same compound, the “interaction with GPVI, Mean” value (GPVI; Compound concentration (10µM)) was 25.42 pm, the solubility at 2 h (physchem; pbs with 1% dmso) was 51.9 µM (≈ 22.4 µg/mL) and the inhibition at 1 µM (human platelets [2]) was 34%.
In the case of C[C@H]1O[C@@H](O[C@H]2[C@@H](O)C[C@H](O[C@H]3[C@@H](O)C[C@H](O[C@H]4CC[C@@]5(C)[C@H](CC[C@@H]6[C@@H]5C[C@@H](O)[C@]5(C)[C@@H](C7=CC(=O)OC7)CC[C@]65O)C4)O[C@@H]3C)O[C@@H]2C)C[C@H](O)[C@@H]1O [Digoxin, reference compound], the solubility at 2 h [10] is given as 96.9 µM (≈ 75.7 µg/mL) and the Reported solubility [8] is given as 59.3* µM.
